Results reported in patent EP0455432A1, “Alpha-glycosyl naringin, and its preparation and uses” (KABUSHIKI KAISHA HAYASHIBARA SEIBUTSU KAGAKU KENKYUJO, priority 1990, dated 1991).

System: α-glucosidase (EC 3.2.1.20) derived from pig liver

## α-Glucosyl naringin
  hydrolysis by α-glucosidase: hydrolyzed α-glucosyl naringin into naringin and D-glucose
